Reference: DBAASP
In brackets after ≈: the same amount, converted by molar mass.

How the values were obtained:
Assay in all cases: ≥ marks a high value that may be exact or a test limit, other limits are often not marked, values filed in µg/mL are converted to µM
Staphylococcus aureus = tested on: Staphylococcus aureus
Escherichia coli JM109 = tested on: Escherichia coli JM109
Pseudomonas aeruginosa = tested on: Pseudomonas aeruginosa
[1] = tested on: Staphylococcus aureus ATCC 6538P
[2] = tested on: Staphylococcus aureus B38302
Escherichia coli K91BK = tested on: Escherichia coli K91BK
[3] = tested on: Bacillus subtilis var. niger ATCC 9372
Escherichia coli U16318 = tested on: Escherichia coli U16318
[4] = tested on: Bacillus anthracis Sterne 34F2
[5] = tested on: Shewanella putrefaciens IAM 1509
Salmonella typhimurium = tested on: Salmonella typhimurium
[6] = tested on: Escherichia coli JCM 1649
[7] = tested on: Photobacterium damselae subsp. piscicida Sp 9587
[8] = tested on: Vibrio parahaemolyticus Vp+1
[9] = tested on: Vibrio anguillarum NCIMB 829
[10] = tested on: Aeromonas salmonicida NCIMB 1102
[11] = tested on: Bacillus subtilis IAM 1026
[12] = tested on: Staphylococcus aureus IAM 1011
[13] = tested on: Fusobacterium nucleatum NCTC 10562
[14] = tested on: Stenotrophomonas maltophilia
[15] = tested on: Helicobacter pylori ATCC 43504
[16] = tested on: Pseudomonas aeruginosa ATCC 27853
[17] = tested on: Enterococcus faecalis NCTC 12697
[18] = tested on: Candida albicans NCTC 3179
[19] = tested on: Pseudomonas aeruginosa PAO239
[20] = tested on: Escherichia coli ATCC 25922
[21] = tested on: Staphylococcus aureus ATCC 25923
[22] = tested on: Streptococcus mutans ATCC 10449
[23] = tested on: Escherichia coli ATCC 25726
Acinetobacter baumannii = tested on: Acinetobacter baumannii
[24] = tested on: Staphylococcus aureus 06-051
[25] = tested on: Enterobacter cloacae 14-262
[26] = tested on: Pseudomonas aeruginosa ATCC 9027
Escherichia coli 09-240 = tested on: Escherichia coli 09-240
[27] = tested on: Acinetobacter baumannii 5821
Escherichia coli 09-280 = tested on: Escherichia coli 09-280
[28] = tested on: Pseudomonas aeruginosa 5106
[29] = tested on: Klebsiella pneumoniae 01-252
[30] = tested on: Staphylococcus aureus ATCC 29213
[31] = tested on: Enterobacter cloacae 06-267
[32] = tested on: Klebsiella pneumoniae 01-239
Escherichia coli 5509 = tested on: Escherichia coli 5509
[33] = tested on: Staphylococcus aureus 01-001
Escherichia coli 170 = tested on: Escherichia coli 170
[34] = tested on: Pseudomonas aeruginosa 3599
[35] = tested on: Staphylococcus carnosus KHS
[36] = tested on: Bacillus licheniformis X39
[37] = tested on: Psychrobacter faecalis X29
[38] = tested on: Candida albicans ATCC 2002
[39] = tested on: Enterococcus faecium 091299
[40] = tested on: Rhodococcus rhodochrous X15

Q: `CC[C@H](C)[C@H](NC(=O)[C@H](C)NC(=O)[C@H](CC(C)C)NC(=O)[C@H](CC(C)C)NC(=O)[C@H](CC(C)C)NC(=O)[C@H](C)N)C(=O)N[C@@H](CCCN=C(N)N)C(=O)N[C@@H](CCCN=C(N)N)C(=O)N[C@@H](CCCN=C(N)N)C(N)=O` [ALLLAIRRR] was tested. Which MIC (Staphylococcus aureus) did it give?
A: 29.6 µM (≈ 32 µg/mL)

Q: And the MIC (Escherichia coli JM109)?
A: 1.85 µM (≈ 2 µg/mL)

Q: And the MIC (Pseudomonas aeruginosa)?
A: 2.77 µM (≈ 3 µg/mL)

Q: And the MIC [1]?
A: 1.85 µM (≈ 2 µg/mL)

Q: Which MIC [2] does the source give for `CC(=O)N[C@@H](C)C(=O)N[C@@H](CC(C)C)C(=O)N[C@@H](Cc1c[nH]c2ccccc12)C(=O)N[C@@H](CCCCN)C(=O)N[C@H](C(=O)N[C@@H](CC(C)C)C(=O)N[C@@H](CC(C)C)C(=O)N[C@@H](CCCCN)C(=O)N[C@@H](CCCCN)C(=O)N[C@H](C(=O)N[C@@H](CC(C)C)C(=O)N[C@@H](CCCCN)C(=O)N[C@@H](C)C(N)=O)C(C)C)[C@@H](C)O` [ALWKTLLKKVLKA] here?
A: 25 µM (≈ 38.8 µg/mL)

Q: What about the MIC (Escherichia coli K91BK) of the same molecule?
A: ≥ 100 µM

Q: What about the MIC [3] of the same molecule?
A: 4.42 µM (≈ 6.86 µg/mL)

Q: And the MIC (Escherichia coli U16318)?
A: 25 µM (≈ 38.8 µg/mL)

Q: What about the MIC [4] of the same molecule?
A: ≥ 70.7 µM

Q: How did the MIC [5] turn out when `CC[C@H](C)[C@H](NC(=O)CNC(=O)CNC(=O)[C@@H](NC(=O)[C@@H](N)Cc1ccccc1)[C@@H](C)CC)C(=O)N[C@H](C(=O)N[C@@H](CO)C(=O)N[C@@H](Cc1ccccc1)C(=O)N[C@H](C(=O)N[C@@H](CCCCN)C(=O)N[C@@H](CCCCN)C(=O)N[C@@H](CC(C)C)C(=O)N[C@@H](Cc1ccccc1)C(=O)O)[C@@H](C)CC)[C@@H](C)CC` [FIGGIISFIKKLF] was run?
A: 4.21 µM (≈ 6.25 µg/mL)

Q: And the MIC (Salmonella typhimurium)?
A: ≥ 33.7 µM

Q: What about the MIC [6] of the same molecule?
A: ≥ 33.7 µM

Q: And the MIC [7]?
A: 8.43 µM (≈ 12.5 µg/mL)

Q: And the MIC [8]?
A: 16.9 µM (≈ 25 µg/mL)

Q: What about the MIC [9] of the same molecule?
A: 8.43 µM (≈ 12.5 µg/mL)

Q: What about the MIC [10] of the same molecule?
A: ≥ 33.7 µM

Q: And the MIC [11]?
A: 4.21 µM (≈ 6.25 µg/mL)

Q: And the MIC [12]?
A: 2.11 µM (≈ 3.13 µg/mL)

Q: For `CSCC[C@H](NC(=O)CN)C(=O)N[C@@H](C)C(=O)N[C@@H](CO)C(=O)N[C@@H](CCCCN)C(=O)N[C@@H](C)C(=O)NCC(=O)N[C@@H](CO)C(=O)N[C@H](C(=O)N[C@@H](CC(C)C)C(=O)NCC(=O)N[C@@H](CCCCN)C(=O)N[C@H](C(=O)N[C@@H](C)C(=O)N[C@@H](CCCCN)C(=O)N[C@H](C(=O)N[C@@H](C)C(=O)N[C@@H](CC(C)C)C(=O)N[C@@H](CCCCN)C(=O)N[C@@H](C)C(=O)N[C@@H](C)C(=O)N[C@@H](CC(C)C)C(N)=O)C(C)C)C(C)C)C(C)C` [GMASKAGSVLGKVAKVALKAAL], which MIC [13] is on record?
A: 12.5 µM (≈ 25.9 µg/mL)

Q: And the MIC [14]?
A: 5.66 µM (≈ 11.7 µg/mL)

Q: What about the MIC [15] of the same molecule?
A: 0.483 µM (≈ 1 µg/mL)

Q: And the MIC [16]?
A: 12.5 µM (≈ 25.9 µg/mL)

Q: What about the MIC [17] of the same molecule?
A: ≥ 100 µM

Q: What about the MIC [18] of the same molecule?
A: ≥ 50 µM

Q: What about the MIC [19] of the same molecule?
A: 25 µM (≈ 51.7 µg/mL)

Q: And the MIC [20]?
A: 25 µM (≈ 51.7 µg/mL)

Q: What about the MIC [21] of the same molecule?
A: 35.4 µM (≈ 73.2 µg/mL)

Q: What about the MIC [22] of the same molecule?
A: 3.1 µM (≈ 6.42 µg/mL)

Q: What about the MIC [23] of the same molecule?
A: 12.5 µM (≈ 25.9 µg/mL)

Q: And the MIC (Acinetobacter baumannii)?
A: 11.3 µM (≈ 23.4 µg/mL)

Q: Which results are given for `CC[C@H](C)[C@H](N)C(=O)N[C@@H](Cc1c[nH]c2ccccc12)C(=O)N[C@@H](CO)C(=O)N[C@@H](C)C(=O)N[C@H](C(=O)N[C@@H](Cc1c[nH]c2ccccc12)C(=O)N[C@@H](CO)C(=O)NCC(=O)N[C@H](C(=O)N[C@@H](CCCCN)C(=O)NCC(=O)N[C@@H](CC(C)C)C(=O)N[C@@H](CC(C)C)C(N)=O)[C@@H](C)CC)[C@@H](C)CC` [IWSAIWSGIKGLL]?
A: MIC [24]: 2 µM (≈ 2.89 µg/mL); MIC [25]: ≥ 32 µM; MIC [26]: 2 µM (≈ 2.89 µg/mL); MIC (Escherichia coli 09-240): 30 µM (≈ 43.3 µg/mL); MIC [27]: 14 µM (≈ 20.2 µg/mL); MIC (Escherichia coli 09-280): ≥ 32 µM; MIC [16]: > 32 µM; MIC [28]: ≥ 32 µM; MIC [29]: ≥ 32 µM; MIC [30]: 4 µM (≈ 5.77 µg/mL); MIC [20]: 15 µM (≈ 21.6 µg/mL); MIC [31]: ≥ 32 µM; MIC [21]: 1 µM (≈ 1.44 µg/mL); MIC [32]: ≥ 32 µM; MIC (Escherichia coli 5509): ≥ 32 µM; MIC [33]: 2 µM (≈ 2.89 µg/mL); MIC (Escherichia coli 170): ≥ 32 µM; MIC [34]: ≥ 32 µM

Q: Which results are given for `CC[C@H](C)[C@H](NC(=O)[C@H](C)NC(=O)[C@H](CC(C)C)NC(=O)[C@H](CC(C)C)NC(=O)[C@H](Cc1cnc[nH]1)NC(=O)[C@H](C)NC(=O)[C@H](C)NC(=O)[C@H](CC(C)C)NC(=O)[C@@H](N)CC(C)C)C(=O)NCC(=O)N[C@@H](CCCN=C(N)N)C(=O)N[C@@H](CCCN=C(N)N)C(N)=O` [LLAAHLLAIGRR]?
A: MIC (Staphylococcus aureus): 49.1 µM (≈ 64 µg/mL); MIC (Escherichia coli JM109): ≥ 36.8 µM; MIC [1]: 7.67 µM (≈ 9.99 µg/mL)

Q: How did the MIC [35] turn out when `CC[C@H](C)[C@H](NC(=O)[C@H](CC(C)C)NC(=O)[C@H](CC(C)C)NC(=O)[C@H](CC(=O)O)NC(=O)[C@H](CCCCN)NC(=O)[C@@H](NC(=O)[C@@H](NC(=O)CNC(=O)[C@H](CC(C)C)NC(=O)[C@H](CC(C)C)NC(=O)[C@@H](N)CO)[C@@H](C)O)C(C)C)C(=O)NCC(=O)N[C@@H](C)C(=O)NCC(=O)N[C@@H](CCCCN)C(=O)N[C@@H](CO)C(=O)N[C@@H](C)C(=O)N[C@@H](C)C(=O)N[C@@H](CCC(N)=O)C(=O)N[C@@H](CO)C(=O)N[C@H](C(=O)N[C@@H](CC(C)C)C(=O)N[C@@H](CCCCN)C(=O)NCC(=O)N[C@@H](CC(C)C)C(=O)N[C@@H](CO)C(=O)N[C@H]1CSSC[C@@H](C(=O)O)NC(=O)[C@H](CC(=O)O)NC(=O)[C@H](CCCCN)NC(=O)[C@H](CO)NC(=O)[C@H](CC(C)C)NC(=O)[C@H](CCCCN)NC1=O)C(C)C` [SLLGTVKDLLIGAGKSAAQSVLKGLSCKLSKDC] was run?
A: ≥ 150 µM

Q: What about the MIC [36] of the same molecule?
A: ≥ 37.5 µM

Q: What about the MIC [37] of the same molecule?
A: 9.5 µM (≈ 31.4 µg/mL)

Q: What about the MIC [21] of the same molecule?
A: 19 µM (≈ 62.8 µg/mL)

Q: And the MIC [38]?
A: 19 µM (≈ 62.8 µg/mL)

Q: What about the MIC [39] of the same molecule?
A: ≥ 150 µM

Q: What about the MIC [40] of the same molecule?
A: 9.5 µM (≈ 31.4 µg/mL)
